Source: ChEMBL document CHEMBL6109034, “Discovery of novel tetracyclic quinazolines as multi-KRASinhibitors for the treatment of solid tumors” (Bioorg Med Chem Lett, 2025)
Active and inactive are the calls of the source. The rule behind the calls is not given here.

Key:
ASPC1 = assay: Antiproliferative activity against human ASPC1 cells harbouring KRAS G12D mutant assessed as reduction in cell viability incubated for 72 hrs; assay type: functional, cell-based
SW-620 = assay: Antiproliferative activity against human SW620 cells harbouring KRAS G12V mutant assessed as inhibition of cell growth incubated for 72 hrs by Luminescence based assay; assay type: functional; conditions: SW-620, 72 h
GTPase KRas [1] = target: T1, GTPase KRas (Homo sapiens, UniProt P01116, G12D); assay: Inhibition of KRas G12D mutant in human ASPC1 cells assessed as inhibition of ERK phosphorylation at Thr202/Tyr204 residues incubated for 3 hrs by Western blot analysis; assay type: cell-based
HT-29 = assay: Antiproliferative activity against human HT-29 cells harbouring wild-type KRAS assessed as cell growth inhibition by CellTiter-Glo assay; assay type: functional, cell-based
GTPase KRas [2] = target: T1, GTPase KRas; assay: Inhibition of KRas G12D mutant in human SW620 cells assessed as inhibition of ERK phosphorylation at Thr202/Tyr204 residues incubated for 3 hrs by Western blot analysis; assay type: cell-based
[3] = system: GTPase KRas (Homo sapiens), P01116 [G12D]; assay: Inhibition of KRas G12D mutant in human ASPC1 cells assessed as assessed as downregulation of DUSP4 at 0.05 to 300 nM incubated for 3 hrs by Western blot analysis; assay type: cell-based; conditions: dose 0.05-300 nM

Structure (SMILES) | IC50 (ASPC1; Homo sapiens, ASPC1, 72 h) [nM] | IC50 (SW-620) [nM] | IC50 (ASPC1; aspc1) [nM] | also measured
Nc1nc2c(-c3c(Cl)c4c5c(nc(OC[C@@]67CCCN6C[C@H](F)C7)nc5c3F)N3CCCCCC3CO4)ccc(F)c2s1 (stereo not given in full) | 1150 | 151 |  | 
Nc1nc2c(-c3c(Cl)c4c5c(nc(OC[C@@]67CCCN6C[C@H](F)C7)nc5c3F)N3CCCOC[C@H]3CO4)ccc(F)c2s1 | 1920 | 22.6 |  | 
N#Cc1c(N)sc2c(F)ccc(-c3c(Cl)c4c5c(nc(OC[C@@]67CCCN6C[C@H](F)C7)nc5c3F)N3CCCCCC3CO4)c12 (single isomer, unassigned; atropisomer 1) |  |  | 4000 | 
N#Cc1c(N)sc2c(F)ccc(-c3c(Cl)c4c5c(nc(OC[C@@]67CCCN6C[C@H](F)C7)nc5c3F)N3CCCOC[C@H]3CO4)c12 (single isomer, unassigned; atropisomer 2) [listing 1 of 2 here] |  | 0.6 | 378 | IC50 (GTPase KRas [1]): 0.6 nM; IC50 (HT-29): 3230 nM; IC50 (GTPase KRas [2]): 1 nM
N#Cc1c(N)sc2c(F)ccc(-c3c(Cl)c4c5c(nc(OC[C@@]67CCCN6C[C@H](F)C7)nc5c3F)N3CCCCCC3CO4)c12 (single isomer, unassigned; atropisomer 2) |  | 4.4 | 713 | 
N#Cc1c(N)sc2c(F)ccc(-c3c(Cl)c4c5c(nc(OC[C@@]67CCCN6C[C@H](F)C7)nc5c3F)N3CCCOC[C@H]3CO4)c12 (single isomer, unassigned; atropisomer 2) [listing 2 of 2 here] |  |  |  | Activity [3]: Active

Now from value to molecule, other results behind:

IC50 (ASPC1; Homo sapiens, ASPC1, 72 h) [nM] | IC50 (SW-620) [nM] | IC50 (ASPC1; aspc1) [nM] | Structure (SMILES) | also measured
3250 | 347 |  | N#Cc1c(N)sc2c(F)ccc(-c3c(Cl)c4c5c(nc(OC[C@@]67CCCN6C[C@H](F)C7)nc5c3F)N3CCCCC[C@@H]3CO4)c12 | 
8240 | 208 |  | Nc1nc2c(-c3c(Cl)cc4c(N5CCCOCC5)nc(OC[C@@]56CCCN5C[C@H](F)C6)nc4c3F)ccc(F)c2s1 | 
354 | 2.6 |  | N#Cc1c(N)sc2c(F)ccc(-c3c(Cl)c4c5c(nc(OC[C@@]67CCCN6C[C@H](F)C7)nc5c3F)N3CCCCC[C@H]3CO4)c12 | 
 |  | 8780 | N#Cc1c(N)sc2c(F)ccc(-c3c(Cl)c4c5c(nc(OC[C@@]67CCCN6C[C@H](F)C7)nc5c3F)N3CCCOC[C@H]3CO4)c12 (single isomer, unassigned; atropisomer 1) | 
